We go through five compounds from patent US9408848B2, “Fluorescent CDK inhibitors for treatment of cancer” (Georgetown University, priority 2008, dated 2016).

The test system of one data set is CL 10.3. Description: Effect on multidrug resistant cell lines, IC50 72 hours. The format is cell-based. The conditions noted are these: for IC50: 72 h, CL 10.3, Breast (MDR); for activity in multidrug resistance cell line: MCF7 versus CL 10.3; for CL 10.3 IC50/MCF-7 IC50: ratio, 72 hours. An excerpt: (§1) The effect of VMY-1-103 on multidrug resistant cell lines was studied and compared with paclitaxel. Table 4 represents the IC50 of the compounds in the individual cell lines along with the ratio of the difference.

The test system of data set [1] is MCF-7. The description is as above. In kind it is cell-based. The conditions noted are these: Homo sapiens, MCF7, 72 h; MCF-7, Breast.
Text: as §1

The next data set concerns the target T1, CDK7/cyclinH/MATI (Homo sapiens, UniProt P50613).
T1 construct: purchased Millipore, Dundee, UK (screening service)
Description: Kinase assay ([γ-33P]-ATP, histone H1). The format is biochemical. The conditions noted are these: for inhibition at 0.1 µM: read-out: % inhibition of kinase activity, CDK7/cyclinH/MATI. On the procedure:
. The final reaction was carried out in a 25 μL solution. The respective kinases (at […] were incubated with 8 mM MOPS (pH 7.0), 0.2 mM EDTA, 0.1 mg/ml histone H1, 10 mM MgAcetate and [γ-33P-ATP] (specific activity approximately 500 cpm/pmol, concentration as required). The reaction was then initiated by the addition of the MgATP mix. The reaction was stopped after 40 min of incubation by adding 5 μL of a 3% phosphoric acid solution. 10 μL of the reaction was spotted onto a P30 filter mat and washed 3 times for 5 min in 75 mM phosphoric acid and one in methanol prior to drying and counted radioactivity by scintillation counting. […]. Table 1 summarizes the cytotoxic effects of VMY compounds and its controls on breast cancer cell line.
(§2) Kinase selectivity of compounds VMY-1-101 and VMY-1-103 were screened at Millipore, Dundee, UK. Briefly assays were performed with a Biomek 2000 Laboratory Automation Workstation in a 96-well format (Beckman instruments, Palo Alto, Calif., U.S.A) for 40 min at ambient temperature in 25 μL incubations using [γ-^33P]-ATP. In a final reaction volume of 25 μL corresponding CDK/cyclin (h) (5-10 mU) was incubated with 8 mM MOPS pH 7.0, 0.2 mM EDTA, 0.1 mg/mL histone H1, 10 mM MgAcetate and [γ-^33P-ATP](specific activity approx. 500 cpm/pmol, concentration as required). The reaction was initiated by the addition of the MgATP mix. After incubation for 40 min at room temperature, the reaction was stopped by the addition of 5 μL of a 3% phosphoric acid solution. From the reaction, 10 μL was spotted onto a P30 filtermat and washed three times for 5 minutes in 75 mM phosphoric acid and once in methanol prior to dying and scintillation counting.

In data set [2] the test system is MDA-MB-231 cells. In words: Apoptotic signaling, Western blot of apoptosis related proteins. In kind it is cell-based, human. On the procedure:
In order to understand whether VMY-1-101 and VMY-1-103 compounds were able to induce apoptotic cell death, the expression of anti- and pro-apoptotic proteins in MDA-MB-231 cells following treatment with 10 μM drugs for 48 hours was evaluated first. […] This is further confirmed with proapoptotic 116 kDa poly (ADP-ribose) polymerase protein (PARP) into its 89-kDa fragments. […].
Western blotting was performed according to literature procedure. In brief, cell pellets were collected at the indicated times after treatment with compounds, suspended in 100 μL of lysis buffer (50 mM Tris-HCl, 150 mM NaCl, 1 mM EGTA, 1 mM EDTA, 20 mM NaF, 100 mM Na3VO4, 0.5% NP-40, 1% Triton X-100, 1 mM PMSF, 5 μg/ml aprotinin, 5 μg/ml leupeptin), vortexed twice and incubated in an ice bath for 30 min. Lysates were cleared by centrifugation at 12000 rpm for 15 min at 4° C. and protein was estimated by detergent compatible BCA protein assay kit (Pierce). Equivalent amounts of total proteins were resolved by SDS-PAGE (10%) and transferred to PVDF membrane. Membranes were blocked by 5% non-fat powdered milk in TBST overnight. Membranes were incubated with indicated primary antibodies for 2 hours followed by HRP-conjugated secondary antibodies for 1 hr and developed using enhanced chemiluminescence kit (Perkin Elmer).

The subject of data set [3] is MDA-MB-231. Description: Cell viability assay (WST-1). In kind it is cell-based, human. The following applies: read-out: IC50 (concentration yielding 50% growth inhibition), MDA-MB-231, WST-1, 48 h. How it is done: (§3) (10%), 2 mM L-glutamine, and 50 μg/mL each of antibiotics, namely penicillin, streptomycin, and neomycin at 37° C. in a humidified incubator containing 5% CO2
(§4) Briefly human breast cancer cells were seeded into a 96-well plate at 3000 cells per well in DMEM containing 10% FBS. Following 24 hours attachment period, compounds were dissolved in DMSO and serially diluted in tissue culture media and added to the cells in triplicate, and incubated for 48 h at 37° C. Control cells were treated with equal amount of DMSO. After 48 h incubation, cell viability was measured by WST-1 assay according to the manufacturer's instructions (Roche). […] The formazan absorbance, which correlates to the number of living cells, was measured at 450 nm and 630 nm as reference filter using a microplate reader. (Ultramark, Microplate Imaging System, Bio-Rad). The IC50 was calculated from the graph of the log of the compound concentration versus the fraction of the surviving cells.
For orientation: Formazan colour is commonly taken as a measure of viable cells.

Data set [4] concerns MCF-7. In words: Cell cycle analysis by flow cytometry (propidium iodide). The format is cell-based, human. The following applies: for % G1 / % S / % Sub-G1: MCF-7, 24 hrs, 5 μM. How it is done: (§5) 5 μM concentrations were used for all drugs tested. The cells were exposed to the vehicle (DMSO) or […] of the CDK inhibitors for 24 hrs. The cell cycle distribution was then assessed using standard procedures.

Data set [5] concerns MDA-MB-231. Described as above. In kind it is cell-based, human. The conditions noted are these: for % G1 / % S / % Sub-G1: MDA-MB-231, 24 hrs, 5 μM. How it is done:
as §5

The next data set relates to phospho-Cdc2. In words: Western blot of G2/M cell cycle proteins. The conditions noted are these: MDA-MB-231, 10 μM, 1-24 h. In kind it is cell-based, human. How it is done: The expression levels principal component proteins, such as, phospho-Cdc2, Cdc2 and cyclin B were specific assessed.
Western blotting was performed according to literature procedure. […] Lysates were cleared by centrifugation at 12000 rpm for 15 min at 4° C. and protein was estimated by detergent compatible BCA protein assay kit (Pierce). Equivalent amounts of total proteins were resolved by SDS-PAGE (10%) and transferred to PVDF membrane. Membranes were blocked by 5% non-fat powdered milk in TBST overnight. Membranes were incubated with indicated primary antibodies for 2 hours followed by HRP-conjugated secondary antibodies for 1 hr and developed using enhanced chemiluminescence kit (Perkin Elmer).
(In western blotting, separated proteins are transferred to a membrane and probed.)

Data set [6] has as its system MDA-MB-231 cells. Description: Reversibility of antiproliferative effect (24 h/MC/48 h, cell cycle by flow cytometry). The following applies: MDA-MB-231, 5 μM and 10 μM, 24 h then 48 h drug free medium. (In general: Flow cytometry measures light scatter and fluorescence of single cells or particles in a stream.)
Description: The cell cycle distribution was then analyzed by flow cytometry.
The effect of CDK inhibitors on cell cycle progression was analyzed by flow cytometry. […] Cells were trypsinized, centrifuged (2000 rpm) and cell pellets were collected. […] The cell cycle distribution was evaluated on DNA plots using the Modfit software (Verity softwarehouse, Topsham, Me.).
Data set [7] relates to MCF-7. In words: Cell viability assay (WST-1). The format is cell-based, human. The following applies: MCF-7, WST-1, 48 h. On the procedure:
as §3, §4

The next data set addresses T2, CDK1/cyclinB (Homo sapiens, UniProt P06493).
T2 construct: purchased Millipore, Dundee, UK (screening service)
Description: Kinase assay ([γ-33P]-ATP, histone H1). The format is biochemical. The following applies: 0.1 µM. How it is done:
(§6) The final reaction was carried out in a 25 μL solution.
as §2, with “Briefly” for “Kinase selectivity of compounds VMY-1-101 and VMY-1-103 were screened at Millipore, Dundee, UK. Briefly”, “solution.” for “solution. From the reaction, 10 μL was spotted onto a P30 filtermat and washed three times for 5 minutes in 75 mM phosphoric acid and once in methanol prior to dying and scintillation counting.”

The target of a further data set is T3, CDK3/cyclinE (Homo sapiens, UniProt Q00526).
T3 construct: purchased Millipore, Dundee, UK (screening service)
T3 sequence (Q00526 whole entry): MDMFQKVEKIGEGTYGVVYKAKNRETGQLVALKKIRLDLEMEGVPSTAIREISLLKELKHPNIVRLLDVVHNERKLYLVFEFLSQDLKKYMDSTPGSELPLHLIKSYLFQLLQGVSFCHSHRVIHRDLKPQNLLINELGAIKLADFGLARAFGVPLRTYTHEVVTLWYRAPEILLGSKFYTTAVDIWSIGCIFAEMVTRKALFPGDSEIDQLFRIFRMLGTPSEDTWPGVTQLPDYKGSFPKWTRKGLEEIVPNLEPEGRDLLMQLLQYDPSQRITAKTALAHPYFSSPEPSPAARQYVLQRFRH
T3 sequence (P24864 whole entry partner): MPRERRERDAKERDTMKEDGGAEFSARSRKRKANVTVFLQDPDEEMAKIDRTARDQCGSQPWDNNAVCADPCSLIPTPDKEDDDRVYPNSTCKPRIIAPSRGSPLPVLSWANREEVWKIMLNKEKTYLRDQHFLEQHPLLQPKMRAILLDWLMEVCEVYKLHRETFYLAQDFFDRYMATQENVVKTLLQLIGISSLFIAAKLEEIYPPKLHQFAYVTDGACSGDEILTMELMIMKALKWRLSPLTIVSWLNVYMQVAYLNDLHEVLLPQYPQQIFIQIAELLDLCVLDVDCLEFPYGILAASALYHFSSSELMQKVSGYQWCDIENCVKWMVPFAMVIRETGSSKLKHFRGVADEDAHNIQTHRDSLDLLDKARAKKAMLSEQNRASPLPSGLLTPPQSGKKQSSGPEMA
Description: Kinase assay ([γ-33P]-ATP, histone H1). The format is biochemical. The conditions noted are these: compound 0.1 μM. How it is done: as §6
as §2, with “Briefly” for “Kinase selectivity of compounds VMY-1-101 and VMY-1-103 were screened at Millipore, Dundee, UK. Briefly”, “solution.” for “solution. From the reaction, 10 μL was spotted onto a P30 filtermat and washed three times for 5 minutes in 75 mM phosphoric acid and once in methanol prior to dying and scintillation counting.”

“Also recorded” adds a separate entry of the source. Where two headings read alike, the source gives them in different places. Bounds are passed on as bounds.

T1 sequence (P50613 whole entry): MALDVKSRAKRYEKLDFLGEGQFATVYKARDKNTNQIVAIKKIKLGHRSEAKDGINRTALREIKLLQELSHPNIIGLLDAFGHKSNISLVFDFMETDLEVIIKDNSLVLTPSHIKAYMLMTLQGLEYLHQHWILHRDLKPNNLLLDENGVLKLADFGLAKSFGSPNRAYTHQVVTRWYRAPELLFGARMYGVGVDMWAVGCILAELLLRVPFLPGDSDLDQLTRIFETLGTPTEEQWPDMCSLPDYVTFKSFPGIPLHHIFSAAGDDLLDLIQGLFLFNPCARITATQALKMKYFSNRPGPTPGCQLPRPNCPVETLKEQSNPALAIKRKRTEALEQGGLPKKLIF
T1 sequence (P51946 whole entry partner): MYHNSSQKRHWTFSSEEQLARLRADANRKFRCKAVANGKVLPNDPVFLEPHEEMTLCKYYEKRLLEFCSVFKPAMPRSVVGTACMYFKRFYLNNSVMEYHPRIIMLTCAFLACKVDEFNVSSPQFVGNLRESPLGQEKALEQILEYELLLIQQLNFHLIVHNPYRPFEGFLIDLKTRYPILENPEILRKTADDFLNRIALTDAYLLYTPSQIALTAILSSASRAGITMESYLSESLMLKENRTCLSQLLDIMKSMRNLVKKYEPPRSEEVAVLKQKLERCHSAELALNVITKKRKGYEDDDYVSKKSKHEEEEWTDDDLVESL
T1 sequence (P51948 whole entry partner): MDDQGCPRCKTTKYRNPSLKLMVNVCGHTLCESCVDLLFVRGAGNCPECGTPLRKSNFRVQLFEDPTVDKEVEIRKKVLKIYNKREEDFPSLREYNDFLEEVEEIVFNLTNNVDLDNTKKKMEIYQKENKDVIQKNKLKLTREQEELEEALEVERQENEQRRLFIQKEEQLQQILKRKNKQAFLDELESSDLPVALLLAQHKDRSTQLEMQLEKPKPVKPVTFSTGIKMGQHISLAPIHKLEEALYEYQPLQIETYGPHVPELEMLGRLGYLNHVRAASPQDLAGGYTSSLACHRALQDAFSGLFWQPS
T2 sequence (P06493 whole entry): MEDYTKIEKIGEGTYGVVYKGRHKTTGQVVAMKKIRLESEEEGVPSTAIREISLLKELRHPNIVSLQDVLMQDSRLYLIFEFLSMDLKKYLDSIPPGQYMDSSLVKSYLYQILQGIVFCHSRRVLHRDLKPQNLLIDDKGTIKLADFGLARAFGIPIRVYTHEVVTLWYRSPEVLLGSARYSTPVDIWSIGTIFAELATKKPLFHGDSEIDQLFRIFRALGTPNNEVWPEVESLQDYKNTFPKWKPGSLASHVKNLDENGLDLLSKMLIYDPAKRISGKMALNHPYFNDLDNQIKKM
T2 sequence (P14635 whole entry partner): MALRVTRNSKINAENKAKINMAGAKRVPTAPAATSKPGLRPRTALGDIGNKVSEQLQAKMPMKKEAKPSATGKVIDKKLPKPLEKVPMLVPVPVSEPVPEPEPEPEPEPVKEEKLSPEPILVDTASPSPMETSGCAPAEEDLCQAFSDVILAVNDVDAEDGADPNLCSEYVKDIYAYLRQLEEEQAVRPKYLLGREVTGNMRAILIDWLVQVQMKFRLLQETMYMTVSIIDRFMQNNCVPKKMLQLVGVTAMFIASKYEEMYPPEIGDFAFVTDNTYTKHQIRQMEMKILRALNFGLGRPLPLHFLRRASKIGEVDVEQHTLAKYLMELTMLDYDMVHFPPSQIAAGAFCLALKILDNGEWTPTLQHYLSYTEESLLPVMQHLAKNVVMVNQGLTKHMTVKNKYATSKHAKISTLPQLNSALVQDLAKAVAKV

Consider `CC(C)[C@H](CO)Nc1nc(Nc2ccc(C(=O)NCCNS(=O)(=O)c3cccc4c(N(C)C)cccc34)c(Cl)c2)c2ncn(C(C)C)c2n1` [VMY-1-103, 2-Chloro-N-[2-(5-dimethylamino-naphthalene-1-sulfonylamino)-ethyl]-4-[2-(1-hydroxymethyl-2-methyl-propylamino)-9-isopropyl-9H-purin-6-ylamino]-benzamide], for which, in the data set on CL 10.3, the IC50 came to 44.3 µM, the “activity in multidrug resistance cell line” value was “moderate activity in a multidrug resistance cell line” and the “CL 10.3 IC50/MCF-7 IC50” value turned out to be 9.8. Also, the “activity in multidrug resistance cell line” value in the data set on CL 10.3 (listed as VMY-103) is on record as “comparable activity in both cell lines”. The substrate for p-glycoprotein result with CL 10.3 (inferred from MDR cell line (Table 4)) is given as “not a substrate for p-glycoprotein”. Besides, in the data set on MCF-7 [1], the IC50 turned out to be 4500 nM. For the same compound, the inhibition at 0.1 µM at CDK7/cyclinH/MATI (compound 0.1 μM) stood at 69 ± 2%. In addition, in the data set on MDA-MB-231 cells [2] (MDA-MB-231, 10 μM, 48 hours), the PARP cleavage result was “moderate cleavage of the 116-kDa full length PARP into an 89-kDa fragment”; the “protein level of full length caspase 3 and 7” value is “decrease in protein level of full length caspase 3 and 7”. The IC50 in the data set on MDA-MB-231 [3] (Homo sapiens) is 4.06 ± 1.32 µM. Besides, in the data set with MCF-7 [4] (MCF-7, 5, 10 μM, 24 hrs), the “effect on cell cycle progression (G2/M phase)” value is listed as “induced the cell cycle progression in G2/M phase”. Moreover, in the data set with MCF-7 [4], the “% G1” value was 61.02 ± 0.28%, the “% S” value was found to be 16.26 ± 0.24% and the “% Sub-G1” value is listed as 2.09 ± 0.08%. Moreover, the “effect on cell cycle progression (G2/M phase)” value in the data set on MDA-MB-231 [5] (MDA-MB-231, 5, 10 μM, 24 hrs) is “induced the cell cycle progression in G2/M phase”. In addition, in the data set on MDA-MB-231 [5], the “% G1” value turned out to be 51.87 ± 0.80%, the “% S” value came out at 25.15 ± 0.53% and the “% Sub-G1” value came to 2.17 ± 0.18%. In addition, the “expression of phospho-Cdc2 (T161, Y15)” value with phospho-Cdc2 was “decrease the phosphorylation level of G2/M checkpoint proteins; also recorded: time-dependent decrease in expression of phospho-Cdc2”.

`CC[C@H](CO)Nc1nc(NCc2ccccc2)c2ncn(C(C)C)c2n1` [Roscovitine, 2-(R)-(1-ethyl-2-hydroxyethylamino)-6-benzylamino-9-isopropylpurine, reference compound]: the inhibition at 0.1 µM on CDK7/cyclinH/MATI amounted to 26 ± 5%. Further, the “reversibility of G2/M arrest / antiproliferative effect” value in the data set on MDA-MB-231 cells [6] was “went back to the normal stage after post incubation”. For the same compound, the “change in apoptosis protein levels” value with MDA-MB-231 cells [2] (MDA-MB-231, even at 40 μM) was “no change in protein levels”. In the data set on MCF-7 [4], the “% G1” value was 63.83 ± 0.58%, the “% S” value is 19.88 ± 0.74% and the “% Sub-G1” value is 0.73 ± 0.02%. Also, in the data set on MDA-MB-231 [5], the “% G1” value came out at 57.59 ± 0.44%, the “% S” value turned out to be 26.29 ± 0.32% and the “% Sub-G1” value was 1.22 ± 0.06%.

With `CC(=O)O[C@H]1C(=O)[C@@]2(C)[C@H]([C@H](OC(=O)c3ccccc3)[C@]3(O)C[C@H](OC(=O)[C@H](O)[C@@H](NC(=O)c4ccccc4)c4ccccc4)C(C)=C1C3(C)C)[C@]1(OC(C)=O)CO[C@@H]1C[C@@H]2O` [Paclitaxel, reference compound], the results for the IC50 in the data set with CL 10.3 and in the data set with MCF-7 [1] were 47.5 µM and 2 nM, respectively. In addition, in the data set with CL 10.3, the “CL 10.3 IC50/MCF-7 IC50” value was determined as 2375.

Regarding `CN(C)c1cccc2c(S(=O)(=O)NCCN)cccc12` [Dansyl ethylenediamine, reference compound], the IC50 in the data set with MCF-7 [7] (Homo sapiens, MCF7, read-out: IC50 (concentration yielding 50% growth inhibition)) is more than 100 µM; with MDA-MB-231 [3] (Homo sapiens) it was more than 100 µM.

Turning to `CC(C)[C@H](CO)Nc1nc(Nc2ccc(C(=O)O)c(Cl)c2)c2ncn(C(C)C)c2n1` [Purvalanol B, reference compound], at CDK7/cyclinH/MATI (compound 0.1 μM), the “% inhibition of kinase activity, CDK7/cyclinH/MATI” value amounted to 66 ± 1%. In addition, the IC50 with MCF-7 [7] (read-out: IC50 (concentration yielding 50% growth inhibition)) was more than 100 µM. Further, the IC50 with MDA-MB-231 [3] was more than 100 µM. In the data set on MCF-7 [4], the “% G1” value came to 64.37 ± 0.57%, the “% S” value came out at 20.54 ± 0.57% and the “% Sub-G1” value stood at 1.10 ± 0.03%. Also, in the data set on MDA-MB-231 [5], the “% G1” value is on record as 58.69 ± 0.54%, the “% S” value is 29.86 ± 0.70% and the “% Sub-G1” value was found to be 1.19 ± 0.01%. Further, the “expression of phospho-Cdc2 (T161, Y15)” value in the data set on phospho-Cdc2 is “no affect on the phospho-Cdc2 expression; also recorded: does not show any affect on expression of phosphor-Cdc2”. For the same compound, the “% inhibition of kinase activity, CDK1/cyclinB” value on CDK1/cyclinB is 78 ± 6%. Besides, the “% inhibition of kinase activity, CDK3/cyclinE” value on CDK3/cyclinE was 89 ± 0%.
